{"source": "patent US9469650B2", "about": "“Melampomagnolide B derivatives” (BOARD OF TRUSTEES OF THE UNIVERSITY OF ARKANSAS, priority 2013, dated 2016)", "key": {"MDA-MB-435": {"system": "MDA-MB-435", "assay": "panel of 60 human tumor cell lines, growth inhibition (Melanoma)", "conditions": "MDA-MB-435"}, "SK-MEL-2": {"system": "SK-MEL-2", "assay": "panel of 60 human tumor cell lines, growth inhibition (Melanoma)", "conditions": "SK-MEL-2"}, "SF-539": {"system": "SF-539", "assay": "panel of 60 human tumor cell lines, growth inhibition (CNS Cancer)", "conditions": "SF-539"}, "U251": {"system": "U251", "assay": "panel of 60 human tumor cell lines, growth inhibition (CNS Cancer)", "conditions": "U251"}, "HCT-116": {"system": "HCT-116", "assay": "panel of 60 human tumor cell lines, growth inhibition (Colon Cancer)", "conditions": "HCT-116"}, "HT29": {"system": "HT29", "assay": "panel of 60 human tumor cell lines, growth inhibition (Colon Cancer)", "conditions": "HT29"}, "KM12": {"system": "KM12", "assay": "panel of 60 human tumor cell lines, growth inhibition (Colon Cancer)", "conditions": "KM12"}, "786-0": {"system": "786-0", "assay": "panel of 60 human tumor cell lines, growth inhibition (Renal Cancer)", "conditions": "786-0"}, "A498": {"system": "A498", "assay": "panel of 60 human tumor cell lines, growth inhibition (Renal Cancer)", "conditions": "A498"}}, "data": [{"compound": "C=C1C(=O)O[C@H]2[C@H]1CC/C(COC(=O)N1CCC(F)(F)CC1)=C\\CC[C@@]1(C)O[C@@H]21", "note": "[JVM 2-66]", "values": [{"measurement": "GI50", "setting": "MDA-MB-435", "value": 464, "unit": "nM"}, {"measurement": "TGI", "setting": "MDA-MB-435", "value": "1.89E−5"}, {"measurement": "Percent Growth", "setting": "MDA-MB-435; Log10 Concentration −4.0", "value": "−52", "unit": "%"}, {"measurement": "Percent Growth", "setting": "MDA-MB-435; Log10 Concentration −5.0", "value": 20, "unit": "%"}, {"measurement": "Percent Growth", "setting": "MDA-MB-435; Log10 Concentration −6.0", "value": 30, "unit": "%"}, {"measurement": "Percent Growth", "setting": "MDA-MB-435; Log10 Concentration −7.0", "value": 91, "unit": "%"}, {"measurement": "Percent Growth", "setting": "MDA-MB-435; Log10 Concentration −8.0", "value": 98, "unit": "%"}, {"measurement": "GI50", "setting": "SK-MEL-2", "value": 2930, "unit": "nM"}, {"measurement": "TGI", "setting": "SK-MEL-2", "value": "8.95E−6"}, {"measurement": "Percent Growth", "setting": "SK-MEL-2; Log10 Concentration −4.0", "value": "−84", "unit": "%"}, {"measurement": "Percent Growth", "setting": "SK-MEL-2; Log10 Concentration −5.0", "value": "−5", "unit": "%"}, {"measurement": "Percent Growth", "setting": "SK-MEL-2; Log10 Concentration −6.0", "value": 98, "unit": "%"}, {"measurement": "Percent Growth", "setting": "SK-MEL-2; Log10 Concentration −7.0", "value": 99, "unit": "%"}, {"measurement": "Percent Growth", "setting": "SK-MEL-2; Log10 Concentration −8.0", "value": 100, "unit": "%"}, {"measurement": "GI50", "setting": "SF-539", "value": 1980, "unit": "nM"}, {"measurement": "TGI", "setting": "SF-539", "value": "459E−6"}, {"measurement": "Percent Growth", "setting": "SF-539; Log10 Concentration −4.0", "value": "−88", "unit": "%"}, {"measurement": "Percent Growth", "setting": "SF-539; Log10 Concentration −5.0", "value": "−46", "unit": "%"}, {"measurement": "Percent Growth", "setting": "SF-539; Log10 Concentration −6.0", "value": 90, "unit": "%"}, {"measurement": "Percent Growth", "setting": "SF-539; Log10 Concentration −7.0", "value": 85, "unit": "%"}, {"measurement": "Percent Growth", "setting": "SF-539; Log10 Concentration −8.0", "value": 96, "unit": "%"}, {"measurement": "TGI", "setting": "U251", "value": "2.66E−5"}, {"measurement": "Percent Growth", "setting": "U251; Log10 Concentration −4.0", "value": "−99", "unit": "%"}, {"measurement": "Percent Growth", "setting": "U251; Log10 Concentration −5.0", "value": 73, "unit": "%"}, {"measurement": "Percent Growth", "setting": "U251; Log10 Concentration −6.0", "value": 92, "unit": "%"}, {"measurement": "Percent Growth", "setting": "U251; Log10 Concentration −7.0", "value": 96, "unit": "%"}, {"measurement": "Percent Growth", "setting": "U251; Log10 Concentration −8.0", "value": 96, "unit": "%"}, {"measurement": "GI50", "setting": "HCT-116", "value": 1410, "unit": "nM"}, {"measurement": "TGI", "setting": "HCT-116", "value": "3.30E−6"}, {"measurement": "Percent Growth", "setting": "HCT-116; Log10 Concentration −4.0", "value": "−100", "unit": "%"}, {"measurement": "Percent Growth", "setting": "HCT-116; Log10 Concentration −5.0", "value": "−65", "unit": "%"}, {"measurement": "Percent Growth", "setting": "HCT-116; Log10 Concentration −6.0", "value": 70, "unit": "%"}, {"measurement": "Percent Growth", "setting": "HCT-116; Log10 Concentration −7.0", "value": 93, "unit": "%"}, {"measurement": "Percent Growth", "setting": "HCT-116; Log10 Concentration −8.0", "value": 99, "unit": "%"}, {"measurement": "GI50", "setting": "HT29", "value": 3.3, "unit": "µM"}, {"measurement": "TGI", "setting": "HT29", "value": "1.05E−5"}, {"measurement": "Percent Growth", "setting": "HT29; Log10 Concentration −4.0", "value": "−84", "unit": "%"}, {"measurement": "Percent Growth", "setting": "HT29; Log10 Concentration −5.0", "value": 2, "unit": "%"}, {"measurement": "Percent Growth", "setting": "HT29; Log10 Concentration −6.0", "value": 102, "unit": "%"}, {"measurement": "Percent Growth", "setting": "HT29; Log10 Concentration −7.0", "value": 101, "unit": "%"}, {"measurement": "Percent Growth", "setting": "HT29; Log10 Concentration −8.0", "value": 97, "unit": "%"}, {"measurement": "GI50", "setting": "KM12", "value": 8.55, "unit": "µM"}, {"measurement": "TGI", "setting": "KM12", "value": "2.26E−5"}, {"measurement": "Percent Growth", "setting": "KM12; Log10 Concentration −4.0", "value": "−85", "unit": "%"}, {"measurement": "Percent Growth", "setting": "KM12; Log10 Concentration −5.0", "value": 46, "unit": "%"}, {"measurement": "Percent Growth", "setting": "KM12; Log10 Concentration −6.0", "value": 99, "unit": "%"}, {"measurement": "Percent Growth", "setting": "KM12; Log10 Concentration −7.0", "value": 97, "unit": "%"}, {"measurement": "Percent Growth", "setting": "KM12; Log10 Concentration −8.0", "value": 103, "unit": "%"}, {"measurement": "GI50", "setting": "786-0", "value": 3.67, "unit": "µM"}, {"measurement": "TGI", "setting": "786-0", "value": "1.50E−5"}, {"measurement": "Percent Growth", "setting": "786-0; Log10 Concentration −4.0", "value": "−81", "unit": "%"}, {"measurement": "Percent Growth", "setting": "786-0; Log10 Concentration −5.0", "value": 17, "unit": "%"}, {"measurement": "Percent Growth", "setting": "786-0; Log10 Concentration −6.0", "value": 93, "unit": "%"}, {"measurement": "Percent Growth", "setting": "786-0; Log10 Concentration −7.0", "value": 91, "unit": "%"}, {"measurement": "Percent Growth", "setting": "786-0; Log10 Concentration −8.0", "value": 97, "unit": "%"}, {"measurement": "GI50", "setting": "A498", "value": 1590, "unit": "nM"}, {"measurement": "TGI", "setting": "A498", "value": "6.87E−6"}, {"measurement": "Percent Growth", "setting": "A498; Log10 Concentration −4.0", "value": "−93", "unit": "%"}, {"measurement": "Percent Growth", "setting": "A498; Log10 Concentration −5.0", "value": "−13", "unit": "%"}, {"measurement": "Percent Growth", "setting": "A498; Log10 Concentration −6.0", "value": 66, "unit": "%"}, {"measurement": "Percent Growth", "setting": "A498; Log10 Concentration −7.0", "value": 73, "unit": "%"}, {"measurement": "Percent Growth", "setting": "A498; Log10 Concentration −8.0", "value": 84, "unit": "%"}]}]}
